Data on four compounds can be found in ChEMBL document CHEMBL1128255, “Synthesis of 11 beta-[18F]fluoro-5 alpha-dihydrotestosterone and 11 beta-[18F]fluoro-19-nor-5 alpha-dihydrotestosterone: preparation via halofluorination-reduction, receptor binding, and tissue distribution” (J Med Chem, 1995).

Structures are written as SMILES.

Data set [1] can be described thus: physchem. Conditions: octanol/water.
Description: Partition coefficient (logP)
Data set [2] deals with T1, Androgen receptor (Rattus norvegicus) (UniProt P15207).
T1 sequence (whole entry): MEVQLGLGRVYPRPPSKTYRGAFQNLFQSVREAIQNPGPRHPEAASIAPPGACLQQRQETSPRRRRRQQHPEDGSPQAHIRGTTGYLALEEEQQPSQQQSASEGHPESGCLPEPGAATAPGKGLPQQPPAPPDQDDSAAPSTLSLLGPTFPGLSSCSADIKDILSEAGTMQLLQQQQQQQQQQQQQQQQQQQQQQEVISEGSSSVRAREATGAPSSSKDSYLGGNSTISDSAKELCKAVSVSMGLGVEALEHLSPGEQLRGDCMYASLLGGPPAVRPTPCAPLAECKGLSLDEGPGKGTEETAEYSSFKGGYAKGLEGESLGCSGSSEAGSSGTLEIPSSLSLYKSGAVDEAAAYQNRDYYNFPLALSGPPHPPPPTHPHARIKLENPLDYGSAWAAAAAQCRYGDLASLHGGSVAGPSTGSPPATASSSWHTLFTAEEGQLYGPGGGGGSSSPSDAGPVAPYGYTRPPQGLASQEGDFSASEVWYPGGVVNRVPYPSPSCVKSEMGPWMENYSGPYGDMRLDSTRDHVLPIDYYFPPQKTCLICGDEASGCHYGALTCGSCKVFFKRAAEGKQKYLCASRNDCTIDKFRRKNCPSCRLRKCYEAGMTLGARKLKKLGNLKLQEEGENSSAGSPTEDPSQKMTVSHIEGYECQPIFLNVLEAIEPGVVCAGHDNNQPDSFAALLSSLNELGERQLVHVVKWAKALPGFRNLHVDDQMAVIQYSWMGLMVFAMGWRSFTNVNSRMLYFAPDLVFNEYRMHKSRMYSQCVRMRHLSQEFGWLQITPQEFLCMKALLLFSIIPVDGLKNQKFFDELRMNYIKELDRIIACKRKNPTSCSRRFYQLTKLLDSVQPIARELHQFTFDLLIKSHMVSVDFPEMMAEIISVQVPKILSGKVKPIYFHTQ
Description: Binding selectivity index (BSI) as ratio of RBA for androgen receptor to non-specific binding of R1881

As usually defined, the logP is a log measure of how a compound divides between an organic and an aqueous phase. A higher logP goes with higher lipophilicity. The compound `C[C@]12CC[C@H]3[C@@H](CC[C@H]4CC(=O)CC[C@@H]43)[C@@H]1CC[C@@H]2O` displayed a lipophilicity (logP) in data set [1] of 3.85. This compound also had a BSI in data set [2] of 13.7.

In turn, `C[C@]1(O)CC[C@H]2[C@@H]3CCC4=CC(=O)CCC4=C3C=C[C@@]21C` [METRIBOLONE] yielded a logP in data set [1] of 3.29. The same compound came in with a BSI in data set [2] of 100.

`C[C@]12CC[C@H]3[C@@H](CCC4=CC(=O)CC[C@@H]43)[C@@H]1CC[C@@H]2O` [NANDROLONE] displayed a lipophilicity (logP) in data set [1] of 3.17.

In data set [1], `C[C@]12CC[C@H]3[C@@H](CCC4=CC(=O)CC[C@@]43C)[C@@H]1CC[C@@H]2O` [TESTOSTERONE] returned a logP of 3.45.
